Read-outs that look alike come from different tables or passages of the source.

This note sets out measurements from patent US9359338B2, “Cyclopropanecarboxamido-substitute aromatic compounds as anti-tumor agents” (Crown Bioscience Inc. (Taiwan), priority 2012, dated 2016).

One data set deals with pERK in MDA-MB-231 cells. The data set can be described thus: Inhibitory activity at pERK (In Cell Western, MDA-MB-231 cells). In kind it is cell-based. Conditions: Homo sapiens. In outline:
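MDA-MB-231 cells were treated 2 h at 37 °C with 8 compound concentrations in 3-fold dilutions from 30 μM top (0.3% DMSO, DMEM with 0.1% BSA). Cells were then fixed, methanol-permeabilized and immunostained for pERK with PI counterstain. Fluorescence was read on Acumen and IC50 calculated.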

Another data set concerns PLC-PRF-5 cells. Briefly: Inhibition of proliferation of PLC-PRF-5 cells (ATPlite). In kind it is cell-based. Conditions: Homo sapiens. The procedure, abridged: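 PLC-PRF-5 cells in DMEM/10% FBS, seeded 2 h before compound; 8-point 3-fold dilutions from 30 μM final top, 0.3% DMSO. After 96 h at 37 °C, 5% CO2, ATP content read by ATPlite luminescence; IC50 calculated.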
In general terms: ATP-based viability assays read luminescence as a measure of living cells.

The target of a further data set is B-Raf kinase (Homo sapiens (Human), UniProt P15056). The data set can be described thus: Inhibitory activity at B-Raf kinase (ADP-GLO assay). It is filed as biochemical. The procedure, abridged: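 B-Raf (5 nM) was preincubated with compound (0.25% DMSO final) for 20 min at 30 °C in 50 mM Hepes pH 7.5, 10 mM Mg²⁺, 1 mM EGTA, 2 mM DTT. Reaction with 6 μM ATP and 30 nM GST-MEK1 ran 2 hrs at 30 °C. ADP was detected by ADP-GLO luminescence, giving IC50 values.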
Chain of B-Raf kinase (P15056 416-766): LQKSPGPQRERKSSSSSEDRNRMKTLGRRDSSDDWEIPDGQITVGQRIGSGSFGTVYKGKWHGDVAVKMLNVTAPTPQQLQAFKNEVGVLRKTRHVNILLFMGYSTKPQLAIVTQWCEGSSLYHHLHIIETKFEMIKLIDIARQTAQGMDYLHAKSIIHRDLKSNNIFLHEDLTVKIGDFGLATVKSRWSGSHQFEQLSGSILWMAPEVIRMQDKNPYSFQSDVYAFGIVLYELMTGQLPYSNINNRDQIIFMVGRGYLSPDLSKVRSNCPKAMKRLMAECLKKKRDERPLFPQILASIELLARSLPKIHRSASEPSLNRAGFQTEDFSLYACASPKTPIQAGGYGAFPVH

A further data set has as its target KDR kinase (790-1356 AA) (Homo sapiens (Human), UniProt P35968). The data set can be described thus: Inhibitory activity at KDR kinase (Lance Ultra Ulight-TK assay). It is filed as biochemical. In outline: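 TR-FRET (Eu-anti-phosphotyrosine PT66) with 20 nM KDR preincubated with compound 20 min at 30 °C in HEPES pH 7.5 buffer with Mg2+/Mn2+, 0.5% DMSO.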
The next data set has as its system tumor. Briefly: In vivo anti-tumor activity in pre-clinical animal studies. Conditions: compared with compounds of the invention.
The nature of data set [1]: Half-life in pre-clinical animal studies. In kind it is in vivo. The conditions noted are these: compared with compounds of the invention.
Where [2] appears, read: MDA-MB-231, MDA-MB-231 cells, read-out: MDA-MB-231 pERK IC50.
[3] abbreviates: PLC-PRF-5, PLC-PRF-5 cells, read-out: PLC-PRF-5 cell proliferation IC50.

Chain of KDR kinase (790-1356 AA) (P35968 790-1356): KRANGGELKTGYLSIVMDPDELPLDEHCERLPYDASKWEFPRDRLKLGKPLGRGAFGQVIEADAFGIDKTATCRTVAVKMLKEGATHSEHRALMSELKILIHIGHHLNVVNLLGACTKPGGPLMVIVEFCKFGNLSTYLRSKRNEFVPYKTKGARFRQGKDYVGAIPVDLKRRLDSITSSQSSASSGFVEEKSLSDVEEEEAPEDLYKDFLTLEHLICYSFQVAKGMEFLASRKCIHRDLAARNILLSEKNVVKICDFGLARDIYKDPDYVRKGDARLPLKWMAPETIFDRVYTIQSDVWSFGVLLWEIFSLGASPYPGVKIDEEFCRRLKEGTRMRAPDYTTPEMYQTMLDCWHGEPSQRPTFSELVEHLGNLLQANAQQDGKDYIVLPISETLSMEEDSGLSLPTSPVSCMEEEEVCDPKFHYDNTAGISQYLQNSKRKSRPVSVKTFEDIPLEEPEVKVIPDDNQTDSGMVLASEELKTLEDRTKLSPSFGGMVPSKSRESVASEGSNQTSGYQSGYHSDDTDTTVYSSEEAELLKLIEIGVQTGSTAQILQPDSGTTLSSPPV

On to `CC(F)(F)c1cc(NC(=O)Nc2ccc(Oc3ccnc(NC(=O)C4CC4)c3)cc2F)ccc1F` [Exe. 220], for which the IC50 in the data set with pERK in MDA-MB-231 cells (setting [2]) was 4.6 nM; in the data set on PLC-PRF-5 cells (setting [3]) it was 240 nM; against B-Raf kinase, 7.1 nM; against KDR kinase (790-1356 AA), 14.9 nM.

As to `N#Cc1ccc(NC(=O)Nc2ccc(Oc3ccnc(NC(=O)C4CC4)c3)cc2F)cc1Cl` [Exe. 221], the IC50 in the data set with pERK in MDA-MB-231 cells (MDA-MB-231, read-out: MDA-MB-231 pERK IC50) stood at 7.8 nM; with PLC-PRF-5 cells (PLC-PRF-5, read-out: PLC-PRF-5 cell proliferation IC50), 1270 nM; at B-Raf kinase, 11 nM; at KDR kinase (790-1356 AA), 6.7 nM.

Take `Cc1ccc(Oc2ccnc(NC(=O)C3CC3)c2)cc1NC(=O)Nc1cc(F)cc(C(F)(F)F)c1` [Exe. 224]: the IC50 in the data set with pERK in MDA-MB-231 cells (setting [2]) turned out to be 22.4 nM; in the data set on PLC-PRF-5 cells (setting [3]) it was 4700 nM; at B-Raf kinase it was 29 nM; at KDR kinase (790-1356 AA) it was 9.5 nM.

Turning to `Cc1ccc(Oc2ccnc(NC(=O)C3CC3)c2)cc1NC(=O)Nc1cc(C(F)(F)F)ccc1F` [Exe. 225], the IC50 in the data set on pERK in MDA-MB-231 cells (setting [2]) turned out to be 12 nM; with PLC-PRF-5 cells (setting [3]), 5720 nM; against B-Raf kinase, 11 nM; against KDR kinase (790-1356 AA) it was 10.7 nM.

Consider `Cc1ccc(Oc2ccnc(NC(=O)C3CC3)c2)cc1NC(=O)Nc1cc(C(C)(F)F)ccc1F` [Exe. 227], for which the IC50 in the data set with pERK in MDA-MB-231 cells (setting [2]) was found to be 34.4 nM; in the data set with PLC-PRF-5 cells (setting [3]), 17800 nM; at B-Raf kinase, 27 nM; at KDR kinase (790-1356 AA) it was 17.2 nM.

In the case of `Cc1cc(NC(=O)Nc2ccc(F)c(C(F)(F)F)c2)ccc1Oc1ccnc(NC(=O)C2CC2)c1` [Exe. 230], the IC50 came out at 12 nM with pERK in MDA-MB-231 cells (setting [2]), 830 nM in the data set with PLC-PRF-5 cells (setting [3]), 20.7 nM against B-Raf kinase and 11.7 nM against KDR kinase (790-1356 AA).

In the case of `Cc1cc(NC(=O)Nc2cccc(C(F)(F)F)c2)ccc1Oc1ccnc(NC(=O)C2CC2)c1` [Exe. 231], the IC50 stood at 7.1 nM with pERK in MDA-MB-231 cells (setting [2]), 310 nM in the data set on PLC-PRF-5 cells (setting [3]), 12.5 nM against B-Raf kinase and 11.6 nM on KDR kinase (790-1356 AA).

Turning to `Cc1cc(NC(=O)Nc2cccc(OC(F)(F)F)c2)ccc1Oc1ccnc(NC(=O)C2CC2)c1` [Exe. 232], the IC50 in the data set on pERK in MDA-MB-231 cells (setting [2]) was found to be 10.9 nM; in the data set on PLC-PRF-5 cells (setting [3]), 418 nM; at B-Raf kinase, 14 nM; against KDR kinase (790-1356 AA), 11 nM.

In the case of `Cc1cc(NC(=O)Nc2cc(C(C)(F)F)ccc2F)ccc1Oc1ccnc(NC(=O)C2CC2)c1` [Exe. 234], the IC50 in the data set on pERK in MDA-MB-231 cells (setting [2]) was found to be 6.8 nM; in the data set with PLC-PRF-5 cells (setting [3]) it was 63 nM; at B-Raf kinase, 16 nM; on KDR kinase (790-1356 AA), 9.9 nM.

For `Cc1cc(NC(=O)Nc2ccc(Cl)c(C(C)(F)F)c2)ccc1Oc1ccnc(NC(=O)C2CC2)c1` [Exe. 235], the IC50 was 12.2 nM with pERK in MDA-MB-231 cells (setting [2]), 1290 nM in the data set on PLC-PRF-5 cells (setting [3]), 22 nM on B-Raf kinase and 13.4 nM against KDR kinase (790-1356 AA).

Consider `O=C(Nc1ccc(Oc2ccnc(NC(=O)C3CC3)c2)cc1)Nc1cc(OCC2CNC2)cc(C(F)(F)F)c1` [Exe. 237, N-[4-[4-[[3-(azetidin-3-ylmethoxy)-5-(trifluoromethyl)phenyl]carbamoylamino]phenoxy]-2-pyridyl]cyclopropanecarboxamide], for which the IC50 in the data set on pERK in MDA-MB-231 cells (setting [2]) was determined as 730 nM; in the data set on PLC-PRF-5 cells (setting [3]) it was 14900 nM; at B-Raf kinase it was 3.7 nM; against KDR kinase (790-1356 AA) it was 13.9 nM.

In the case of `Nc1cc(NC(=O)Nc2ccc(Oc3ccnc(NC(=O)C4CC4)c3)c(F)c2)cc(C(F)(F)F)c1` [Exe. 239], the IC50 worked out at 27.2 nM with pERK in MDA-MB-231 cells (setting [2]), 930 nM in the data set with PLC-PRF-5 cells (setting [3]), 7 nM at B-Raf kinase and 9.7 nM against KDR kinase (790-1356 AA).

With `CN1CC(Oc2cc(NC(=O)Nc3ccc(Oc4ccnc(NC(=O)C5CC5)c4)cc3)cc(C(F)(F)F)c2)C1` [Exe. 241, N-[4-[4-[[3-(1-methylazetidin-3-yl)oxy-5-(trifluoromethyl)phenyl]carbamoylamino]phenoxy]-2-pyridyl]cyclopropanecarboxamide], the IC50 in the data set on pERK in MDA-MB-231 cells (setting [2]) stood at 61.5 nM; in the data set on PLC-PRF-5 cells (setting [3]) it was 1770 nM; on B-Raf kinase, 9.1 nM; against KDR kinase (790-1356 AA) it was 17.9 nM.

On to `CNC(=O)c1cc(Oc2ccc(NC(=O)Nc3ccc(Cl)c(C(F)(F)F)c3)cc2)ccn1` [sorafenib], for which the “in vivo anti-tumor activities” value in the data set with tumor is listed as “weaker than that of many of the compounds in the present invention”. In addition, the half-life entry in data set [1] is recorded as “shorter half-life than many of the compounds in this invention”.
